Laboratory results reported in patent US5223494A, “Orally administered porphyrins to control intestinal iron absorption” (The Rockefeller University, priority 1990, dated 1993).
Where two headings read alike, the source gives them in different places. Each block holds one molecule with its values, some of them ahead of it.

Legend:
[1] = tested on: intestinal microsomal heme oxygenase; experiment: Competitive inhibition of intestinal microsomal heme oxygenase in vitro; type: biochemical, rat
Method: SnPP (o) was added to intestinal microsomes at concentrations of […]. The heme concentration was 50 uM. Heme oxygenase activity was determined as described below under Materials and Methods. Each point represents the mean of at least 3 individual experiments. Similar results obtain for other metalloporphyrins within the scope of the present invention.
(§1) Animals were sacrificed at the times indicated in the legend to the Table and in the above and following descriptions of the Figures, and then exhaustively perfused in situ with ice-cold 0.9% NaCl through the left ventricle. The small intestine was cut at the pyloric junction and the entire length of the intestine irrigated in situ with 30 ml of ice-cold 0.9% NaCl to remove intestinal contents. Beginning at 5 cm, a 20 cm segment of small intestine was excised and irrigated once more with 30 ml of saline. The mucosa was then gently scraped off with a stainless steel scalpel and placed in ice-cold potassium phosphate buffer (0.1M, pH 7.4), containing sucrose (0.25M), 20% glycerin (v/v), trypsin inhibitor (5 mg/ml), and heparin (3 U/ml), as described by Stohs et al, Arch. Biochem Biophys. 177: 105-116 (1976). Following sonication and homogenization, intestinal microsomes were then prepared by differential centrifugation as described in Rosenberg et al, Biochem. Pharmacol. 38: 1155-1161 (1988). The microsomal pellet was rinsed and resuspended in 1.5 ml of potassium phosphate buffer (0.1M, pH 7.4) to a protein concentration of approximately 5-10 mg/ml. Microsomes were freshly prepared on a daily basis for all subsequent assays. The activity of heme oxygenase was determined as described in Maines et al, J. Biol. Chem. 250: 4171-4178 (1975), using the 105,000xg supernatant fraction derived from normal rat liver as the source of biliverdin reductase, and a hemin concentration of 50 uM. Bilirubin formation was calculated using an absorption coefficient of 40 mm^1 cm^1 between 464 and 530 nm (See Maines et al, Proc. Natl. Acad. Sci. USA 71: 4293-4297 (1974)). Protein content was determined by method of Lowry et al, J. Biol. Chem. 193: 265-275 (1951) suing bovine serum albumin as a standard.
This is similar to the Km reported for heme in hepatic and splenic microsomes (See Kappas et al, J. Clin. Invest. 77: 335-339 (1986); Yoshinaga et al, J. Biol. Chem. 257: 7778-7785 (1982)).

[2] = tested on: intestinal heme oxygenase; conditions: in vitro or in vivo after administration of SnPP; Hintz et al 1988; cited from earlier work
[3] = tested on: intestinal microsomal heme oxygenase; experiment: Intestinal microsomal heme oxygenase activity after a single dose to rats; type: in vivo, rat; conditions: for Heme Oxygenase Activity in the Gut, Average: control 2.70 + 0.09
Method: (§2) Rats were maintained on Standard Purina Rodent Chow (St. Louis, Mo.), and were allowed to acclimatize to a light-cycled room (12 hr light/dark cycle) for at least one week prior to study. SnPP was dissolved in a small volume (0.2 ml/ml final volume) of 0.2N Na3 PO4 12H2 O, adjusted to pH 7.4 with 1M HCl and made up to a final volume with 0.9% NaCl under subdued light. SnPP was administered either subcutaneously or by gavage in a single dose of 25 umoles/kg body weight (4.0 ml/kg body weight). Control rats received an equivalent volume of diluent. All rats were allowed free access to food and water.
as §1
A single does of SnPP (25 umoles/kg b.w.) was administered either orally or parenterally to rats, and heme oxygenase levels were determined in the small intestinal epithelium at the times indicated in FIG. 1. This dose was selected to match that previously used by other investigators (See Hintz et al, Ped. Res. 23: 50-53 (1988)). Following oral treatment, heme oxygenase activity was rapidly (within 3 hours) inhibited (50% of controls), but the levels returned to normal within 16-24 hours after treatment.

[4] = rat, in vivo, po
Method: as §2
All tin analyses were performed on Zeeman/5000 atomic absorption spectrophotometer equipped with an HGA-500 graphite furnace Perkin-Elmer Corp., Norwalk, Conn.). The graphite furnace utilized the L'vov platform (See Slavin et al, At. Spectrosc. 2: 137-145 (1981)) with an appropriate wavelength (286.4 nm) and instrumental operating conditions as recommended by the manufacturer and optimized in our laboratory for tin measurement. All tin analyses included magnesium nitrate and ammonium phosphate in 20% nitric acid as a matrix modified.
For Table II: SnPP was adminsitered to rats in a single dose (25 umoles/kg body weight) either orally or subcutaneously. Tissue tin levels were determined 48 hours later by graphite furnace atomic absorption spectroscopy. […]

[5] = SnPP 25 umoles/kg single oral dose, rat

Molecule: C=CC1=C(C)c2cc3[n-]c(cc4[n-]c(cc5nc(cc1n2)C(C)=C5C=C)c(C)c4CCC(=O)O)c(CCC(=O)O)c3C.[Fe+2] [heme, reference compound]
Km ([1]; intestinal microsomes, no inhibitor, linear regression, read-out: apparent Km for the substrate heme): 8.21 µM

inhibition of heme oxygenase activity ([3]; SnPP 25 umoles/kg single parenteral (subcutaneous) dose, rat): 65 % inhibition
Km ([1]; SnPP 0.05 uM, intestinal microsomes, read-out: Km for heme in presence of SnPP): 23.9 µM
Km ([1]; SnPP 0.1 uM, intestinal microsomes, read-out: Km for heme in presence of SnPP): 56.2 µM
increase in the Km for heme ([1]; SnPP 0.05 and 0.1 uM): 3- to 7 fold
type of inhibition of enzyme activity ([1]; SnPP 0.05 and 0.1 uM added to incubation mixtures): marked competitive inhibition
Ki ([1]; intestinal microsomes): 17 nM
absorption from the gastrointestinal tract [4]: very low degree of absorption
Molecule: C=Cc1c2[n-]c(c1C)/C=c1\[n-]/c(c(C)c1C=C)=C\c1[n-]c(c(CCC(=O)O)c1C)/C=c1\[n-]c(c(C)c1CCC(=O)O)=C2.[Sn+4] [SnPP, tin protoporphyrin]
inhibition of intestinal heme oxygenase [2]: no inhibition
heme oxygenase activity in small intestinal epithelium [3, 5]: 50 % of controls
time for heme oxygenase levels to return to normal [3, 5]: 16 to 24 h
time to inhibition of heme oxygenase activity [3, 5]: ≤ 3 h
persistence of decreased heme oxygenase activity ([3]; SnPP 25 umoles/kg single parenteral dose, rat): at least 48 hours

Molecule: chromium mesoporphyrin [CrMP]
Heme Oxygenase Activity in the Gut, Average ([3]; 3 hours after oral 25 umol/Kg CrMP): 0.64 + 0.38
Heme Oxygenase Activity in the Gut, Average ([3]; 16 hours after oral 25 umol/Kg CrMP): 1.04 + 0.02
Heme Oxygenase Activity in the Gut, Average ([3]; 24 hours after oral 25 umol/Kg CrMP): 1.85 + 0.07
Heme Oxygenase Activity in the Gut, Average ([3]; 48 hours after oral 25 umol/Kg CrMP): 2.57 + 0.07
